Among the test systems are KM12; M14; OVCAR-3; HOP-62; SN12C; RXF 393; HCT-116; HT-29; SK-MEL-28; HCC 2998; UACC-62; SNB-75; NCI-H460; MCF7; ACHN; LOX IMVI; OVCAR-8; SF-295; HL-60; Malme-3M.
Assay in all cases: inhibition of tumour cell growth, NCI panel, 48 h

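Results reflect a 48-hour exposure of cells in 96-well plates to compound at five concentrations. GI50 = concentration required for 50% inhibition of growth.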 Activity calls are given as the source filed them. Rule as the data show it: active = GI50 up to about 1.1 µM and inactive = higher. A value given as a limit tells only on which side of the number the result lay.

In the case of `CC(C)CCNC(=O)c1ccc(CNC(=O)/C=C/c2ccc(OCc3ccccc3)cc2)cc1`, the GI50 in the assay on KM12, with M14, in the assay on OVCAR-3, with HOP-62, in the assay on SN12C and with RXF 393 was > 100 µM (inactive) in each case. Also, the GI50 in the assay on HCT-116, in the assay on HT-29, in the assay on SK-MEL-28, in the assay with HCC 2998, with UACC-62 and with SNB-75 was > 100 µM (inactive) each time. The GI50 in the assay on NCI-H460, with MCF7, in the assay on ACHN, with LOX IMVI, with OVCAR-8 and with SF-295 was > 100 µM (inactive) in each case.
Turning to `CCOC(=O)/C(=N/Nc1ccccc1)N1C(=S)N(C)N=C(C)C=C1S`, the GI50 in the assay on KM12 is > 100 µM (inactive); in the assay on M14, > 100 µM (inactive); with OVCAR-3, > 100 µM (inactive); in the assay with SN12C, > 100 µM (inactive); in the assay on RXF 393, 0.465 µM (active); in the assay with HCT-116, > 100 µM (inactive). For the same compound, the GI50 in the assay on HT-29 was > 100 µM (inactive); in the assay on SK-MEL-28, > 100 µM (inactive); in the assay on HCC 2998 it was > 100 µM (inactive); with UACC-62 it was 83.4 µM (inactive); in the assay on SNB-75, 10 µM (inactive); in the assay on HL-60, > 100 µM (inactive). In addition, the GI50 with NCI-H460 was > 100 µM (inactive); in the assay with MCF7, > 100 µM (inactive); with ACHN, > 100 µM (inactive); in the assay with OVCAR-8, > 100 µM (inactive); with SF-295 it was 28.4 µM (inactive).
Regarding `Cc1ccc(S(=O)(=O)NCCSCCNS(=O)(=O)c2ccc(C)cc2)cc1`, the GI50 in the assay with KM12, in the assay with M14, in the assay on OVCAR-3, in the assay on SN12C, with RXF 393 and in the assay with HCT-116 was > 100 µM (inactive) in each case. Further, the GI50 with HT-29, in the assay on SK-MEL-28, in the assay with HCC 2998, in the assay on SNB-75, in the assay with NCI-H460 and in the assay on MCF7 was > 100 µM (inactive) throughout. Also, the GI50 in the assay with ACHN, with LOX IMVI, with OVCAR-8 and in the assay with SF-295 was > 100 µM (inactive) throughout.
Turning to `CC1(C)C[C@H]2C=C(C=O)[C@]34C[C@]3(C(=O)OC4O)[C@H]2C1` (stereo not given in full), the GI50 was 1.94 µM (inactive) in the assay with KM12; 1.44 µM (inactive) in the assay on M14; 2.84 µM (inactive) with OVCAR-3; 14.2 µM (inactive) in the assay with HOP-62; 3.86 µM (inactive) in the assay on SN12C; 1.14 µM (inactive) with HCT-116. Also, the GI50 with HT-29 was 1.87 µM (inactive); in the assay on SK-MEL-28, 2.92 µM (inactive); with HCC 2998, 2.95 µM (inactive); in the assay on Malme-3M, 1.73 µM (inactive); in the assay on UACC-62, 1.97 µM (inactive); with SNB-75 it was 1.91 µM (inactive). For the same compound, the GI50 with HL-60 was 1.92 µM (inactive); in the assay with NCI-H460, 18.1 µM (inactive); in the assay on MCF7, 1.38 µM (inactive); with ACHN, 1.53 µM (inactive); in the assay with LOX IMVI, 1.24 µM (inactive); in the assay with OVCAR-8, 1.1 µM (active). The GI50 with SF-295 is 1.55 µM (inactive).

The values above are taken from ChEMBL document CHEMBL1201862, “PubChem BioAssay data set” (2004).
